In publication PMC7926793, “Synthesis and Biological Evaluation of 1-(Diarylmethyl)-1H-1,2,4-triazoles and 1-(Diarylmethyl)-1H-imidazoles as a Novel Class of Anti-Mitotic Agent for Activity in Breast Cancer” (Pharmaceuticals, 2021):

Columns and labels:
[1] = system: MCF-7 human breast cancer cells; assay: alamarBlue cell viability assay; assay type: cell-based; conditions: Homo sapiens, 72 h; for IC50: MCF7, 72 h, alamarBlue, read-out: Antiproliferative Activity MCF-7 Cells IC50
Description: (§1) The human breast carcinoma cell line MCF-7 was purchased from the European Collection of Animal Cell Cultures (ECACC) and cultured in Eagles minimum essential medium with 10% foetal bovine serum, 2 mM L-glutamine, and 100 μg/mL penicillin/streptomycin. The medium was supplemented with 1% non-essential amino acids. The human breast carcinoma cell line MDA-MB-231 was purchased from the ECACC. MDA-MB-231 cells were maintained in Dulbecco’s modified Eagle’s medium (DMEM) supplemented with 10% (v/v) foetal bovine serum, 2 mM L-glutamine, and 100 μg/mL penicillin/streptomycin (complete medium). HL-60 cells were derived from a patient with acute myeloid leukaemia and were obtained from the ECACC (Salisbury, UK). Cells were cultured in RPMI-1640 Glutamax medium supplemented with 10% FCS media and 100 μg/mL penicillin/streptomycin. MCF-10A cells were obtained as a kind gift from Dr Susan McDonnell, School of Chemical and Bioprocess Engineering, University College Dublin and were cultured in Dulbecco’s Modified Eagle Medium: Nutrient Mixture F-12 (DMEM/F12; Gibco) supplemented with 5% horse serum (Invitrogen), 20 ng mL^−1 epidermal growth factor (Merck Millipore), 0.5 μg mL^−1 hydrocortisone (Sigma,-Aldrich, Arklow, Co. Wicklow, Ireland), 100 ng mL^−1 cholera toxin (Sigma, Aldrich, Arklow, Co. Wicklow, Ireland), 10 μg mL^−1 insulin (Sigma, Aldrich, Arklow, Co. Wicklow, Ireland), and penicillin/streptomycin 5000 U mL^−1 (1%)(Gibco, Biosciences, 3 Charlemont Terrace, Crofton Road, Dun Laoghaire, Co Dublin, A96 K7H7, Ireland). Cells were maintained at 37 °C in 5% CO2 in a humidified incubator. All cells were sub-cultured 3 times/week by trypsinisation using TrypLE Express (1×).
(§2) Cells were seeded at a density of 2.5 × 10^4 cells/well (MCF-7, MDA-MB-231, MCF-10A cells) and 1 × 10^4 cells/well (HL-60) in 96-well plates (200 μL per well). After 24 h, cells were then treated with either medium alone, vehicle control (1% ethanol (v/v)) or with serial dilutions of CA-4 (4a), phenstatin (7a) or selected compounds (0.001–100 μM) in triplicate. Cell proliferation for MCF-7, MDA-MB-231, and MCF-10A cells was analysed using the alamarBlue assay (Invitrogen Corp.) according to the manufacturer’s instructions. After 67–69 h, alamarBlue (10% (v/v)) was added to each well, and plates were incubated for 3–5 h at 37 °C in the dark. Fluorescence was read using a 96-well fluorimeter with excitation at 530 nm and emission at 590 nm. Results were expressed as percentage viability relative to vehicle control (100%).

[2] = system: MDA-MB-231 human breast cancer cells; assay: alamarBlue cell viability assay; assay type: cell-based; conditions: Homo sapiens, MDA-MB-231, 72 h, read-out: Antiproliferative Activity MDA-MB-231 Cells IC50
Description: as §1, §2

[3] = system: HL-60 leukaemia cells; assay: cell viability assay; assay type: cell-based; conditions: Homo sapiens, read-out: Antiproliferative Activity HL-60 Cells IC50
Description: as §1, with “Cells were maintained at 37 °C in 5% CO2 in a humidified incubator. All cells were sub-cultured 3 times/week by trypsinisation using TrypLE Express (1×).” left out
Cells were seeded at a density of 2.5 × 10^4 cells/well (MCF-7, MDA-MB-231, MCF-10A cells) and 1 × 10^4 cells/well (HL-60) in 96-well plates (200 μL per well). […] Cell proliferation for MCF-7, MDA-MB-231, and MCF-10A cells was analysed using the alamarBlue assay (Invitrogen Corp.) according to the manufacturer’s instructions. […] Fluorescence was read using a 96-well fluorimeter with excitation at 530 nm and emission at 590 nm. Results were expressed as percentage viability relative to vehicle control (100%).

[4] = system: tubulin (microtubule network) in MCF-7 cells; assay: immunofluorescence confocal microscopy of microtubule network; assay type: cell-based, human; conditions: 1 μM, 16 h
Description: Confocal microscopy was used to study the effects of drug treatment on MCF-7 cytoskeleton. For immunofluorescence, MCF-7 cells were seeded at 1 × 10^5 cells/mL on eight chamber glass slides (BD Biosciences). […] Following treatment, cells were gently washed in PBS, fixed for 20 min with 4% paraformaldehyde in PBS, and permeabilised in 0.5% Triton X-100. Following washes in PBS containing 0.1% Tween (PBST), cells were blocked in 5% bovine serum albumin diluted in PBST. […] Following washes in PBST, the cells were mounted in Ultra Cruz Mounting Media (Santa Cruz Biotechnology, Santa Cruz, CA) containing 4,6-diamino-2-phenolindol dihydrochloride (DAPI). Images were captured by Leica SP8 confocal microscopy with Leica application suite X software. All images in each experiment were collected on the same day using identical parameters. Experiments were performed on three independent occasions.

[5] = MCF7, read-out: cell viability (viable cells)

SMILES | melting point | viability at 1 µM [1, 5] | further results
COc1ccc(C(c2cc(OC)c(OC)c(OC)c2)N2CCN(c3ccccc3)CC2)cc1O (stereo not drawn) [27i, 2-Methoxy-5-((4-Phenylpiperazin-1-yl)(3,4,5-Trimethoxyphenyl)Methyl)Phenol] | – | – | viability at 10 µM [1, 5]: 48%
COc1cc(C(c2cc(OC)c(OC)c(OC)c2)n2ccnc2)cc(OC)c1OC [21i, 1-(Bis(3,4,5-Trimethoxyphenyl)Methyl)-1H-Imidazole] | 154 to 156 °C | – | –
Fc1ccc(C(c2ccccc2)n2ccnc2)cc1 (stereo not drawn) [20d] | – | 67% | –
Oc1ccc(C(c2ccc(O)cc2)n2cncn2)cc1 [13o] | – | 68% | –
COc1cc(C(c2ccccc2)n2cncn2)cc(OC)c1OC (stereo not drawn) [16e, 1-(Phenyl(3,4,5-Trimethoxyphenyl)Methyl)-1H-1,2,4-Triazole] | 139 to 140 °C | – | –
N#Cc1ccc(C(c2ccc(OCc3ccccc3)cc2)n2cncn2)cc1 (stereo not drawn) [19g, 4-((4-(Benzyloxy)Phenyl)(1H-1,2,4-Triazol-1-yl)Methyl)Benzonitrile] | 79 to 81 °C | – | –
c1ccc(COc2ccc(C(c3ccccc3)n3cncn3)cc2)cc1 (stereo not drawn) [13j, 1-((4-(Benzyloxy)Phenyl)(Phenyl)Methyl)-1H-1,2,4-Triazole] | 132 to 134 °C | – | –
COc1ccc(C(c2cc(OC)c(OC)c(OC)c2)N2CCN(c3ccc(C)cc3)CC2)cc1 (stereo not drawn) [27f] | – | 76% | viability at 0.1 µM ([1]; MCF7, 0.1 μM, read-out: cell viability (viable cells)): 84%; viability at 10 µM [1, 5]: 42%
O=[N+]([O-])c1ccc(C(c2ccccc2)n2ccnc2)cc1 (stereo not drawn) [20b] | – | 73% | –
COc1ccc(C(c2cc(OC)c(OC)c(OC)c2)n2cncn2)cc1 (stereo not drawn) [16c] | – | 75% | –
COc1ccc(C(c2cc(OC)c(OC)c(OC)c2)N2CCN(c3ccccc3)CC2)cc1OCc1ccccc1 (stereo not drawn) [27g, 1-((3-(Benzyloxy)-4-Methoxyphenyl)(3,4,5-Trimethoxyphenyl)Methyl)-4-Phenylpiperazine] | 124 to 126 °C | – | –
Brc1ccc(C(c2ccccc2)n2ccnc2)cc1 (stereo not drawn) [20c, 1-((4-Bromophenyl)(Phenyl)methyl)-1H-Imidazole] | 126 to 128 °C | – | –
COc1cc(C(c2ccc(F)cc2)n2cncn2)cc(OC)c1OC (stereo not drawn) [16g] | – | 77% | –
COc1ccc(C(c2ccccc2)N2CCCC2)cc1 (stereo not drawn) [25d] | – | 80% | –
O=C(Nc1ccc(C(c2ccccc2)n2cncn2)cc1)C(F)(F)F (stereo not drawn) [13i, 2,2,2-Trifluoro-N-(4-(Phenyl(1H-1,2,4-Triazol-1-yl)Methyl)Phenyl)Acetamide] | 143 to 145 °C | – | –
COc1ccc(C(c2cc(OC)c(OC)c(OC)c2)n2cncn2)cc1OCc1ccccc1 (stereo not drawn) [19a, 1-((3-(Benzyloxy)-4-Methoxyphenyl)(3,4,5-Trimethoxyphenyl)Methyl)-1H-1,2,4-Triazole] | 98 to 100 °C | – | –
Fc1ccc(C(c2ccccc2)n2cncn2)cc1 (stereo not drawn) [13c, 1-((4-Fluorophenyl)(Phenyl)Methyl)-1H-1,2,4-Triazole] | 96 to 99 °C | – | –
COc1ccc(C(c2ccc(C#N)cc2)n2cncn2)cc1OCc1ccccc1 (stereo not drawn) [19f, 4-((3-(Benzyloxy)-4-Methoxyphenyl)(1H-1,2,4-Triazol-1-yl)Methyl)Benzonitrile] | 91 to 93 °C | – | –
COc1ccc(/C=C\c2cc(OC)c(OC)c(OC)c2)cc1O [CA-4, reference compound] | – | 24% | IC50 [1]: 3.9 ± 0.32 nM; IC50 [2]: 43 nM; IC50 [3]: 1.9 ± 0.5 nM
Oc1ccc(C(c2ccccc2)n2cncn2)cc1 (stereo not drawn) [13n, 4-(Phenyl(1H-1,2,4-Triazol-1-yl)Methyl)Phenol] | 189 to 191 °C | – | –
Brc1ccc(C(c2ccccc2)N2CCCC2)cc1 (stereo not drawn) [25b, 1-((4-Bromophenyl)(Phenyl)methyl)Pyrrolidine] | 70 to 72 °C | – | –
COc1ccc(C(c2ccc(C#N)cc2)n2cncn2)cc1O (stereo not drawn) [19h, 4-((3-Hydroxy-4-Methoxyphenyl)(1H-1,2,4-Triazol-1-yl)Methyl)Benzonitrile] | 168 to 170 °C | – | IC50 [1]: > 100000 nM
Nc1ccc(C(c2ccccc2)n2cncn2)cc1 (stereo not drawn) [13m, 4-(Phenyl(1H-1,2,4-Triazol-1-yl)Methyl)Aniline] | 149 to 151 °C | 72% | –
CC(=O)O[C@H]1C(=O)[C@@]2(C)[C@H]([C@H](OC(=O)c3ccccc3)[C@]3(O)C[C@H](OC(=O)[C@H](O)[C@@H](NC(=O)c4ccccc4)c4ccccc4)C(C)=C1C3(C)C)[C@]1(OC(C)=O)CO[C@@H]1C[C@@H]2O [paclitaxel, reference compound] | – | – | effect on microtubule network of MCF-7 cells [4]: Hyperpolymerisation of tubulin
CCOc1ccc(C(c2ccccc2)n2cncn2)cc1 (stereo not drawn) [13l, 1-((4-Ethoxyphenyl)(Phenyl)Methyl)-1H-1,2,4-Triazole] | 98 to 100 °C | – | –
N#Cc1ccc(C(c2ccc(O)cc2)n2cncn2)cc1 (stereo not drawn) [19i, 4-((4-Hydroxyphenyl)(1H-1,2,4-Triazol-1-yl)Methyl)Benzonitrile] | – | – | IC50 [1]: > 100000 nM
